We go through nine compounds from patent US20100215618A1, “NOVEL COMPOUNDS - 644” (Arrow Therapeutics Limited, priority 2009, published 2010).

Series [1] relates to HCV genotype 1a replicon cells Htat2ANeo. The experiment in a line: 1a Replicon Assay (cell-based anti-NS5a ELISA). The note with it: Hepatitis C virus, 72 h. Put shortly: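 HCV 1a Htat2ANeo replicon cells (Et2AN control cells) exposed to compound for 72 h at 37° C without G418/blasticidin. NS5a quantified by cell-based ELISA (anti-NS5a, HRP/OPD, A490); IC50 from percentage reduction versus untreated control. Cytotoxicity TD50 by Cell Titre Blue fluorescence (ex 570/em 590 nm) versus DMSO controls.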
For orientation: In antiviral work, replicon cells carry a viral genome segment that copies itself.

Series [2] concerns HCV replicon cells Huh 9B (genotype 1b). The experiment in a line: 1b Replicon Assay (luciferase readout). The class given is cell-based. Particulars: Hepatitis C virus, Huh 9B replicon cells, 72 h, luciferase activity.
In series [3] the test system is HCV replicon cells Huh 9B. The class given is cell-based. Particulars: Huh 9B replicon cells, 72 h, methylene blue, total cell area reduced by 50%. The procedure: HCV replicon cells Huh 9B (ReBlikon), containing the firefly luciferase-ubiquitin-neomycin phosphotransferase fusion protein and EMCV-IRES driven HCV polyprotein with cell culture adaptive mutations.
Replicon cells were trypsinised and counted. Cells were diluted to 100,000 cells/ml and 100 μl used to seed one opaque white 96-well plate (for the replicon assay) and one flat-bottomed clear plate (for the tox assay) for every five compounds to be tested for IC50. Wells G12 and H12 were left empty in the clear plate as the blank. Plates were then incubated at 37° C./5% CO2 for 24 h.
On the following day compound dilutions were prepared in medium at twice their desired final concentration in a clear round bottomed plate. All dilutions have a final DMSO concentration of 1%.
Controls and compounds were transferred from the dilution plates to the assay plates (containing the cells) at 100 μl/well in duplicate wells.
Exception: no compound was added to wells A1 and A2 of either plate and 100 μl of 1% DMSO was added to these instead. Plates were then incubated at 37° C./5% CO2 for 72 h.
The clear plate was stained with 100 μA 0.5% methylene blue in 50% ethanol at room temperature for 1 h, followed by solvation of the absorbed methylene blue in 100 μl per well of 1% lauroylsarcosine. Absorbance of the plate was measured on a microplate spectrophotometer (Molecular Devices) and the absorbance for each concentration of compound expressed as a proportion of the relative DMSO control. The TD50, the is concentration of drug required to reduce the total cell area by 50% relative to the DMSO controls, was calculated by plotting the absorbance at 620 nm after background substraction against drug concentration.

Where [4] appears, read: read-out: pIC50 1a Replicon (converted).
Setting [5] is: read-out: pIC50 1b Replicon (converted).

Like-named read-outs stand apart in the source and are kept apart here.

As for `COC(=O)N[C@@H](CO)C(=O)N1CCC[C@H]1c1ncc(-c2ccc(-c3ccc(C(=O)Nc4ccc(CN5CCS(=O)(=O)CC5)cc4)cc3)cc2)[nH]1` [Example 11, Methyl N-[(1S)-2-[(2S)-2-[5-[4-[4-[[4-[(1,1-dioxo-1,4-thiazinan-4-yl)methyl]phenyl]carbamoyl]phenyl]phenyl]-1H-imidazol-2-yl]pyrrolidin-1-yl]-1-(hydroxymethyl)-2-oxo-ethyl]carbamate], the IC50 is 0.019 µM in series [1] (read-out: HCV IC50 Elisa 1a), 0.0191 µM in series [1] (setting [4]), 0.00113 µM in series [2] (read-out: HCV IC50 1b Replicon) and 0.00112 µM in series [2] (setting [5]). Moreover, the “HCV TD50 Replicon” value in series [3] is above 21 µM.

As to `COC(=O)N[C@H](C(=O)N1CCC[C@H]1c1ncc(-c2ccc(-c3cccc(C(=O)Nc4ccc(CN5CCS(=O)(=O)CC5)cc4)c3)cc2)[nH]1)C(C)C` [Example 28, Methyl N-[(1S)-1-[(2S)-2-[5-[4-[3-[[4-[(1,1-dioxo-1,4-thiazinan-4-yl)methyl]phenyl]carbamoyl]phenyl]phenyl]-1H-imidazol-2-yl]pyrrolidine-1-carbonyl]-2-methyl-propyl]carbamate], the IC50 is 2.08 µM in series [1] (read-out: HCV IC50 Elisa 1a), 2.09 µM in series [1] (setting [4]), 0.00732 µM in series [2] (read-out: HCV IC50 1b Replicon) and 0.00724 µM in series [2] (setting [5]). For the same compound, the “HCV TD50 Replicon” value in series [3] was above 25 µM.

For the compound `COC(=O)N[C@@H](C)C(=O)N1CCC[C@H]1c1ncc(-c2ccc(-c3cccc(C(=O)Nc4ccc(CN5CCS(=O)(=O)CC5)cc4)c3)cc2)[nH]1` [Example 29, Methyl N-[(1S)-2-[(2S)-2-[5-[4-[3-[[4-[(1,1-dioxo-1,4-thiazinan-4-yl)methyl]phenyl]carbamoyl]phenyl]phenyl]-1H-imidazol-2-yl]pyrrolidin-1-yl]-1-methyl-2-oxo-ethyl]carbamate], the IC50 is 7.62 µM in series [1] (read-out: HCV IC50 Elisa 1a), 7.59 µM in series [1] (setting [4]), 0.0334 µM in series [2] (read-out: HCV IC50 1b Replicon) and 0.0331 µM in series [2] (setting [5]). The “HCV TD50 Replicon” value in series [3] is above 25 µM.

Take `COC(=O)N[C@H](C(=O)N1CCC[C@H]1c1ncc(-c2ccc(-c3cccc(C(=O)Nc4ccc(CN5CCS(=O)(=O)CC5)cc4)c3)cc2)[nH]1)c1ccccc1` [Example 30, Methyl N-[(1S)-2-[(2S)-2-[5-[4-[3-[[4-[(1,1-dioxo-1,4-thiazinan-4-yl)methyl]phenyl]carbamoyl]phenyl]phenyl]-1H-imidazol-2-yl]pyrrolidin-1-yl]-2-oxo-1-phenyl-ethyl]carbamate]: the IC50 in series [1] (read-out: HCV IC50 Elisa 1a) was 2.48 µM; in series [1] (setting [4]) it was 2.45 µM; in series [2] (read-out: HCV IC50 1b Replicon) it was 0.0012 µM; in series [2] (setting [5]) it was 0.0012 µM. Also, the “HCV TD50 Replicon” value in series [3] was above 25 µM.

For the compound `COC(=O)N[C@@H](C(=O)N1CCC[C@H]1c1ncc(-c2ccc(-c3cccc(C(=O)Nc4ccc(CN5CCS(=O)(=O)CC5)cc4)c3)cc2)[nH]1)c1ccccc1` [Example 31, Methyl N-[(1R)-2-[(2S)-2-[5-[4-[3-[[4-[(1,1-dioxo-1,4-thiazinan-4-yl)methyl]phenyl]carbamoyl]phenyl]phenyl]-1H-imidazol-2-yl]pyrrolidin-1-yl]-2-oxo-1-phenyl-ethyl]carbamate], the IC50 is 2.7 µM in series [1] (read-out: HCV IC50 Elisa 1a), 2.69 µM in series [1] (setting [4]), 0.00091 µM in series [2] (read-out: HCV IC50 1b Replicon) and 0.000912 µM in series [2] (setting [5]). Further, the “HCV TD50 Replicon” value in series [3] was above 25 µM.

Consider `CCN(CC)[C@@H](C(=O)N1CCC[C@H]1c1ncc(-c2ccc(-c3cccc(C(=O)Nc4ccc(CN5CCS(=O)(=O)CC5)cc4)c3)cc2)[nH]1)c1ccccc1` [Example 32, 3-[4-[2-[(2S)-1-[(2R)-2-(diethylamino)-2-phenyl-acetyl]pyrrolidin-2-yl]-1H-imidazol-5-yl]phenyl]-N-[4-[(1,1-dioxo-1,4-thiazinan-4-yl)methyl]phenyl]benzamide], for which the IC50 was 1.15 µM in series [1] (read-out: HCV IC50 Elisa 1a), 1.15 µM in series [1] (setting [4]), 0.00021 µM in series [2] (read-out: HCV IC50 1b Replicon) and 0.000209 µM in series [2] (setting [5]). For the same compound, in series [3], the “HCV TD50 Replicon” value was above 25 µM.

As to `COC(=O)N[C@H](C(=O)N1CCOC[C@H]1c1ncc(-c2ccc(-c3ccc(C(=O)Nc4ccc(CN5CCS(=O)(=O)CC5)cc4)cc3)cc2)[nH]1)C(C)C` [Example 46, Methyl N-[(1S)-1-[(3R)-3-[5-[4-[4-[[4-[(1,1-dioxo-1,4-thiazinan-4-yl)methyl]phenyl]carbamoyl]phenyl]phenyl]-1H-imidazol-2-yl]morpholine-4-carbonyl]-2-methyl-propyl]carbamate], the IC50 in series [1] (read-out: HCV IC50 Elisa 1a) was 0.0194 µM; in series [1] (setting [4]), 0.0195 µM; in series [2] (read-out: HCV IC50 1b Replicon), 0.00071 µM; in series [2] (setting [5]), 0.000708 µM. Further, the “HCV TD50 Replicon” value in series [3] was above 25 µM.

For `CC(C)(C)OC(=O)N[C@H](C(=O)N1CCOC[C@H]1c1ncc(-c2ccc(-c3ccc(C(=O)Nc4ccc(CN5CCS(=O)(=O)CC5)cc4)cc3)cc2)[nH]1)c1ccccc1` [Example 48, tert-Butyl N-[(1S)-2-[(3R)-3-[5-[4-[4-[[4-[(1,1-dioxo-1,4-thiazinan-4-yl)methyl]phenyl]carbamoyl]phenyl]phenyl]-1H-imidazol-2-yl]morpholin-4-yl]-2-oxo-1-phenyl-ethyl]carbamate], the IC50 is 0.0526 µM in series [1] (read-out: HCV IC50 Elisa 1a), 0.0525 µM in series [1] (setting [4]), 0.00051 µM in series [2] (read-out: HCV IC50 1b Replicon) and 0.000513 µM in series [2] (setting [5]). The “HCV TD50 Replicon” value in series [3] is above 25 µM.

For `CN(C)[C@@H](C(=O)N1CCOC[C@H]1c1ncc(-c2ccc(-c3ccc(C(=O)Nc4ccc(CN5CCS(=O)(=O)CC5)cc4)cc3)cc2)[nH]1)c1ccccc1` [Example 49, 4-[4-[2-[(3R)-4-[(2R)-2-(dimethylamino)-2-phenyl-acetyl]morpholin-3-yl]-1H-imidazol-5-yl]phenyl]-N-[4-[(1,1-dioxo-1,4-thiazinan-4-yl)methyl]phenyl]benzamide], the IC50 in series [1] (read-out: HCV IC50 Elisa 1a) was 0.0778 µM; in series [1] (setting [4]), 0.0776 µM; in series [2] (read-out: HCV IC50 1b Replicon) it was 0.00088 µM; in series [2] (setting [5]) it was 0.000891 µM. Also, the “HCV TD50 Replicon” value in series [3] was found to be 19.7 µM.
